pIC50: −log10 of the molar value.
Biological target: T1, PLK1 (Homo sapiens, UniProt P53350)
T1 construct: Full-length, active GST-PLK1 is purified from Sf9 insect cells; made in house; host or cells: Sf9 insect cells
Experiment: Biochemical Characterization Assay: HTRF kinase assay, GST-PLK1 phosphorylation of GST-p53
Conditions: GST-PLK1, GST-p53 substrate
In short: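 HTRF read-out of p53 phosphorylation: after EDTA stop, anti-phospho-p53 antibody bound 30 min at 37 °C in HEPES pH 7 buffer, with Eu-anti-rabbit/APC-anti-GST detection. Kinase step used full-length Sf9-expressed GST-PLK1 (3 ug/mL) and E. coli GST-p53 substrate, 35 min at 37 °C.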

T1 sequence (P53350 whole entry): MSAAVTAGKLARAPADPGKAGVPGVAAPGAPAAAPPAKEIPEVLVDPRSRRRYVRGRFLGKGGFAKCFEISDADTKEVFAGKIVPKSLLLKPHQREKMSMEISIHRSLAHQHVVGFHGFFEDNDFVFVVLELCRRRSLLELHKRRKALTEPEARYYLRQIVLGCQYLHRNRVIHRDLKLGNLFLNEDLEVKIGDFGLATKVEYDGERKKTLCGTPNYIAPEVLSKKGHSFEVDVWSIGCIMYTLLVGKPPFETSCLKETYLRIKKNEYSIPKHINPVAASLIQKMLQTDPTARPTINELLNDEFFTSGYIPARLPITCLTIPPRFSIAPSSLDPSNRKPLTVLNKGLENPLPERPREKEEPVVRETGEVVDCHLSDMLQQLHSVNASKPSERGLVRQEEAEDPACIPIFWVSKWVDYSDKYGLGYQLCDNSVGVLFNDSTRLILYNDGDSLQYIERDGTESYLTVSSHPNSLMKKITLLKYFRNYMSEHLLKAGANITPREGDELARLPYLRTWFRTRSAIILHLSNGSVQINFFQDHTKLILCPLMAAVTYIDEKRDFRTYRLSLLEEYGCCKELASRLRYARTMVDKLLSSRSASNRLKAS

Structure (SMILES) | pIC50
CN1C(=O)C(F)(F)CN(C2CCCC2)c2nc(Nc3cc(F)c(C(=O)NC4CCN(C(=O)OC(C)(C)C)CC4)cc3F)ncc21 [Example I-239, 4-[4-(9-cyclopentyl-7,7-difluoro-5-methyl-6-oxo-6,7,8,9-tetrahydro-5H-pyrimido[4,5-b][1,4]diazepin-2-ylamino)-2,5-difluoro-benzoylamino]-piperidine-1-carboxylic acid tert-butyl ester] | 6.30 to 7.29
CN1C(=O)C(F)(F)CN(C2CCCC2)c2nc(Nc3cc(F)c(C(=O)NC4CCNCC4)cc3F)ncc21 [Example I-240, 4-(9-cyclopentyl-7,7-difluoro-5-methyl-6-oxo-6,7,8,9-tetrahydro-5H-pyrimido[4,5-b][1,4]diazepin-2-ylamino)-2,5-difluoro-N-piperidin-4-yl-benzamide] | 7.30 to 9.00
CN1C(=O)C(F)(F)CN(C2CCCC2)c2nc(Nc3cc(F)c(C(N)=O)cc3F)ncc21 [Example I-241, 4-(9-cyclopentyl-7,7-difluoro-5-methyl-6-oxo-6,7,8,9-tetrahydro-5H-pyrimido[4,5-b][1,4]diazepin-2-ylamino)-2,5-difluoro-benzamide] | 7.30 to 9.00
CN1CCC(NC(=O)c2ccc(Nc3ncc4c(n3)N(C3CCCC3)CC(F)(F)C(=O)N4C)c(F)c2F)CC1 [Example I-243] | 7.30 to 9.00
CCN1CCC(NC(=O)c2ccc(Nc3ncc4c(n3)N(C3CCCC3)CC(F)(F)C(=O)N4C)c(F)c2F)CC1 [Example I-244] | 7.30 to 9.00
CNC(=O)c1ccc(Nc2ncc3c(n2)N(C2CCCC2)CC(F)(F)C(=O)N3C)c(F)c1F [Example I-245] | 7.30 to 9.00
COc1cc(C(=O)O)ccc1Nc1ncc2c(n1)N(C1CCCCC1)CC(F)(F)C(=O)N2C [Example I-246, 4-(9-cyclohexyl-7,7-difluoro-5-methyl-6-oxo-6,7,8,9-tetrahydro-5H-pyrimido[4,5-b][1,4]diazepin-2-ylamino)-3-methoxy-benzoic acid] | 7.30 to 9.00
COc1cc(C(N)=O)ccc1Nc1ncc2c(n1)N(C1CCCCC1)CC(F)(F)C(=O)N2C [Example I-248, 4-(9-cyclohexyl-7,7-difluoro-5-methyl-6-oxo-6,7,8,9-tetrahydro-5H-pyrimido[4,5-b][1,4]diazepin-2-ylamino)-3-methoxy-benzamide] | 7.30 to 9.00
COc1cc(C(=O)NCCN(C)C)ccc1Nc1ncc2c(n1)N(C1CCCCC1)CC(F)(F)C(=O)N2C [Example I-253, 4-(9-cyclohexyl-7,7-difluoro-5-methyl-6-oxo-6,7,8,9-tetrahydro-5H-pyrimido[4,5-b][1,4]diazepin-2-ylamino)-N-(2-dimethylamino-ethyl)-3-methoxy-benzamide] | 7.30 to 9.00
COc1cc(C(=O)NCCCN(C)C)ccc1Nc1ncc2c(n1)N(C1CCCCC1)CC(F)(F)C(=O)N2C [Example I-254, 4-(9-cyclohexyl-7,7-difluoro-5-methyl-6-oxo-6,7,8,9-tetrahydro-5H-pyrimido[4,5-b][1,4]diazepin-2-ylamino)-N-(3-dimethylamino-propyl)-3-methoxy-benzamide] | 7.30 to 9.00
CN1C(=O)C(F)(F)CN(C2CCCCC2)c2nc(Nc3ccc(C(=O)O)cc3)ncc21 [Example I-256, 4-(9-cyclohexyl-7,7-difluoro-5-methyl-6-oxo-6,7,8,9-tetrahydro-5H-pyrimido[4,5-b][1,4]diazepin-2-ylamin)-benzoic acid] | 7.30 to 9.00
CN1C(=O)C(F)(F)CN(C2CCCCC2)c2nc(Nc3ccc(C(N)=O)cc3)ncc21 [Example I-257, 4-(9-cyclohexyl-7,7-difluoro-5-methyl-6-oxo-6,7,8,9-tetrahydro-5H-pyrimido[4,5-b][1,4]diazepin-2-ylamino)-benzamide] | 7.30 to 9.00
CNC(=O)c1ccc(Nc2ncc3c(n2)N(C2CCCCC2)CC(F)(F)C(=O)N3C)cc1 [Example I-258, 4-(9-cyclohexyl-7,7-difluoro-5-methyl-6-oxo-6,7,8,9-tetrahydro-5H-pyrimido[4,5-b][1,4]diazepin-2-ylamino)-N-methyl-benzamide] | 7.30 to 9.00
CN1C(=O)C(F)(F)CN(C2CCCCC2)c2nc(Nc3ccc(C(=O)NC4CCNCC4)cc3)ncc21 [Example I-260, 4-(9-cyclohexyl-7,7-difluoro-5-methyl-6-oxo-6,7,8,9-tetrahydro-5H-pyrimido[4,5-b][1,4]diazepin-2-ylamino)-N-piperidin-4-yl-benzamide] | 7.30 to 9.00
CCN1CCC(NC(=O)c2ccc(Nc3ncc4c(n3)N(C3CCCCC3)CC(F)(F)C(=O)N4C)cc2)CC1 [Example I-261, 4-(9-cyclohexyl-7,7-difluoro-5-methyl-6-oxo-6,7,8,9-tetrahydro-5H-pyrimido[4,5-b][1,4]diazepin-2-ylamino)-N-(1-ethyl-piperidin-4-yl)-benzamide] | 7.30 to 9.00
CN1C(=O)C(F)(F)CN(C2CCCCC2)c2nc(Nc3ccc(C(=O)NC4CCOCC4)cc3)ncc21 [Example I-263, 4-(9-cyclohexyl-7,7-difluoro-5-methyl-6-oxo-6,7,8,9-tetrahydro-5H-pyrimido[4,5-b][1,4]diazepin-2-ylamino)-N-(tetrahydro-pyran-4-yl)-benzamide] | 7.30 to 9.00
CN(C)CCNC(=O)c1ccc(Nc2ncc3c(n2)N(C2CCCCC2)CC(F)(F)C(=O)N3C)cc1 [Example I-264, 4-(9-cyclohexyl-7,7-difluoro-5-methyl-6-oxo-6,7,8,9-tetrahydro-5H-pyrimido[4,5-b][1,4]diazepin-2-ylamino)-N-(2-dimethylamino-ethyl)-benzamide] | 7.30 to 9.00
CN(C)CCCNC(=O)c1ccc(Nc2ncc3c(n2)N(C2CCCCC2)CC(F)(F)C(=O)N3C)cc1 [Example I-265, 4-(9-cyclohexyl-7,7-difluoro-5-methyl-6-oxo-6,7,8,9-tetrahydro-5H-pyrimido[4,5-b][1,4]diazepin-2-ylamino)-N-(3-dimethylamino-propyl)-benzamide] | 7.30 to 9.00
COc1cc(C(=O)O)ccc1Nc1ncc2c(n1)N(CCc1cccs1)CC(F)(F)C(=O)N2C [Example I-269, 4-[7,7-difluoro-5-methyl-6-oxo-9-(2-thiophen-2-yl-ethyl)-6,7,8,9-tetrahydro-5-pyrimido[4,5-b]diazepin-2-ylamino]-3-methoxy-benzoic acid] | 6.30 to 7.29
COc1cc(C(=O)NC2CCN(C)CC2)ccc1Nc1ncc2c(n1)N(CCc1cccs1)CC(F)(F)C(=O)N2C [Example I-270, 4-[7,7-difluoro-5-methyl-6-oxo-9-(2-thiophen-2-yl-ethyl)-6,7,8,9-tetrahydro-5H-pyrimido[4,5-b][1,4]diazepin-2-ylamino]-3-methoxy-N-(1-methyl-piperidin-4-yl)-benzamide] | 7.30 to 9.00

Continued, values first:

pIC50 | Structure (SMILES)
7.30 to 9.00 | COc1cc(C(=O)NC2CCN(C)CC2)ccc1Nc1ncc2c(n1)N(C1CCCCC1)CC(F)(F)C(=O)N2C [Example I-247, 4-(9-cyclohexyl-7,7-difluoro-5-methyl-6-oxo-6,7,8,9-tetrahydro-5H-pyrimido[4,5-b][1,4]diazepin-2-ylamino)-3-methoxy-N-(1-methyl-piperidin-4-yl)-benzamide]
7.30 to 9.00 | CNC(=O)c1ccc(Nc2ncc3c(n2)N(C2CCCCC2)CC(F)(F)C(=O)N3C)c(OC)c1 [Example I-249, 4-(9-cyclohexyl-7,7-difluoro-5-methyl-6-oxo-6,7,8,9-tetrahydro-5H-pyrimido[4,5-b][1,4]diazepin-2-ylamino)-3-methoxy-N-methyl-benzamide]
7.30 to 9.00 | COc1cc(C(=O)NC2CCNCC2)ccc1Nc1ncc2c(n1)N(C1CCCCC1)CC(F)(F)C(=O)N2C [Example I-251, 4-(9-cyclohexyl-7,7-difluoro-5-methyl-6-oxo-6,7,8,9-tetrahydro-5H-pyrimido[4,5-b][1,4]diazepin-2-ylamino)-3-methoxy-N-piperidin-4-yl-benzamide]
7.30 to 9.00 | COc1cc(C(=O)NC2CCOCC2)ccc1Nc1ncc2c(n1)N(C1CCCCC1)CC(F)(F)C(=O)N2C [Example I-252, 4-(9-cyclohexyl-7,7-difluoro-5-methyl-6-oxo-6,7,8,9-tetrahydro-5H-pyrimido[4,5-b][1,4]diazepin-2-ylamino)-3-methoxy-N-(tetrahydro-pyran-4-yl)-benzamide]
7.30 to 9.00 | CCN1CCC(NC(=O)c2ccc(Nc3ncc4c(n3)N(C3CCCCC3)CC(F)(F)C(=O)N4C)c(OC)c2)CC1 [Example I-255, 4-(9-cyclohexyl-7,7-difluoro-5-methyl-6-oxo-6,7,8,9-tetrahydro-5H-pyrimido[4,5-b][1,4]diazepin-2-ylamino)-N-(1-ethyl-piperidin-4-yl)-3-methoxy-benzamide]
7.30 to 9.00 | CN1CCC(NC(=O)c2ccc(Nc3ncc4c(n3)N(C3CCCCC3)CC(F)(F)C(=O)N4C)cc2)CC1 [Example I-262, 4-(9-cyclohexyl-7,7-difluoro-5-methyl-6-oxo-6,7,8,9-tetrahydro-5H-pyrimido[4,5-b][1,4]diazepin-2-ylamino)-N-(1-methyl-piperidin-4-yl)-benzamide]
7.30 to 9.00 | COc1cc(C(=O)NC2CCN(CC(F)F)CC2)ccc1Nc1ncc2c(n1)N(C1CCCCC1)CC(F)(F)C(=O)N2C [Example I-266, 4-(9-cyclohexyl-7,7-difluoro-5-methyl-6-oxo-6,7,8,9-tetrahydro-5H-pyrimido[4,5-b][1,4]diazepin-2-ylamino)-N-[1-(2,2-difluoro-ethyl)-piperidin-4-yl]-3-methoxy-benzamide]
7.30 to 9.00 | COc1cc(C(=O)NC2CCN(CCO)CC2)ccc1Nc1ncc2c(n1)N(C1CCCCC1)CC(F)(F)C(=O)N2C [Example I-267, 4-(9-cyclohexyl-7,7-difluoro-5-methyl-6-oxo-6,7,8,9-tetrahydro-5H-pyrimido[4,5-b][1,4]diazepin-2-ylamino)-N-[1-(2-hydroxy-ethyl)-piperidin-4-yl]-3-methoxy-benzamide]
6.30 to 7.29 | COc1cc(C(=O)NC2CCN(S(C)(=O)=O)CC2)ccc1Nc1ncc2c(n1)N(C1CCCCC1)CC(F)(F)C(=O)N2C [Example I-268, 4-(9-cyclohexyl-7,7-difluoro-5-methyl-6-oxo-6,7,8,9-tetrahydro-5H-pyrimido[4,5-b][1,4]diazepin-2-ylamino)-N-(1-methanesulfonyl-piperidin-4-yl)-3-methoxy-benzamide]
